Test results: patent US9981906B2, “Trans-clomiphene metabolites and uses thereof” (Repros Therapeutics Inc., priority 2011, dated 2018)

What was measured:
[1] = tested on: cryopreserved hepatocytes from cynomolgus monkey; assay: Metabolite profile of Androxal in cryopreserved cynomolgus monkey hepatocytes; type: in vitro ADME; conditions: LC/MS
Protocol: (§1) A study was conducted to determine the metabolic profile of Androxal® in cryopreserved hepatocytes from Sprague-Dawley rat, Beagle dog, cynomolgus monkey, and human. The liver is the main site of drug metabolism and the full complement of hepatic drug metabolizing enzymes (including liver enzymes of the CYP P450 family) are maintained within the intact cell. Isolated liver hepatocytes constitute a physiologically relevant experimental model for the evaluation of liver-related drug properties such as metabolism. Cyropreservation of the hepatocytes greatly enhances their availability for studies.
(§2) Primary hepatocytes isolated from several donors for each animal species and five human donors were pooled according to species and cryopreserved. The hepatocytes were thawed, subjected to Percoll density gradient centrifugation to remove debris and counted to determine yield. Viability was measured using Trypan blue exclusion. The hepatocytes were diluted with CYP assay buffer (Krebs-Hensleit Buffer) to prepare a 2× cell suspension of 2.0×10^6 viable cells/ml. Aliquots of the 2× hepatocyte suspension (0.5 ml containing 1.0×10^6 cells) were transferred to appropriate wells for a final 1× cell density of 1.0×10^6 cells/well. All incubations were conducted at 37±1° C., 95% air/5% CO2, and saturating humidity in 12-well uncoated culture plates. […] The cultures were incubated for 1 and 4 hours. The sample size was N=2 replicates.
(§3) Matrix control samples were included as a source of background matrix components to aid in metabolite identification. Equal volumes of 2× hepatocyte suspension and CYP assay buffer without Androxal® were combined and incubated for 4 hours.
(§4) Chemical degradation control samples were included to evaluate the possibility of chemical degradation of Androxal® in the absence of cells. Equal volumes of 2× Androxal® dosing solution (6 and 60 μM) and CYP buffer were combined and incubated for 1 and 4 hours.
(§5) The incubations were terminated as follows: Metabolic positive control incubations were terminated by adding an equal volume of methanol. All other incubations were terminated by placing the plates on ice. The contents of each well were mixed thoroughly and divided into five cryovials. An equal volume of organic solvent was added to one cryovial. The samples were either immediately analyzed or stored in cryovials at −70°±10 C until analysis.
(§6) All samples were analyzed by reverse-phase HPLC. A UV profile of the samples was obtained followed by liquid chromatography-mass spectrometry (LC/MS) analysis using a Micromass® Q-Tof-2 mass spectrometer capable of conducting accurate mass measurement. Preliminary metabolite identification was aided by the use of Metabolynx® software.
(§7) The relative amounts of Androxal and its metabolites after 1 and 4 hour incubations are reported below at Tables 1-4.

[2] = tested on: cryopreserved hepatocytes from Beagle dog; assay: Metabolite profile of Androxal in cryopreserved Beagle dog hepatocytes; type: in vitro ADME; conditions: LC/MS
Protocol: as §1, §2, §3
Chemical degradation control samples were included to evaluate the possibility of chemical degradation of Androxal® in the absence of cells. […]
as §5, §6, §7

[3] = tested on: cryopreserved hepatocytes from human; assay: Metabolite profile of Androxal in cryopreserved human hepatocytes; type: in vitro ADME; conditions: LC/MS
Protocol: as §1, §2, §3, §4, §5, §6, §7

[4] = tested on: cryopreserved hepatocytes from Sprague-Dawley rat; assay: Metabolite profile of Androxal in cryopreserved Sprague-Dawley rat hepatocytes; type: in vitro ADME; conditions: LC/MS
Protocol: as §1, §2, §3, §4, §5, §6, §7

[5] = following a single dose; cited from earlier work
[6] = incubations containing 3 μM Androxal for 1 hour
[7] = incubations containing 3 μM Androxal for 4 hours
[8] = incubations containing 30 mM Androxal for 1 hour
[9] = incubations containing 30 μM Androxal for 4 hours

Compound | relative amount, Cyno. monkey [1, 6] | relative amount, Cyno. monkey [1, 7] | relative amount, Beagle dog [2, 6] | relative amount, Beagle dog [2, 7] | relative amount, Beagle dog [2, 8] | relative amount, Human [3, 6] | relative amount, Human [3, 7] | relative amount, SD Rat [4, 6] | relative amount, SD Rat [4, 7] | relative amount, SD Rat [4, 8] | relative amount, Beagle dog ([2]; incubations containing 30 μM Androxal for 4 hours, retention time 22.7) | relative amount, Beagle dog ([2]; incubations containing 30 μM Androxal for 4 hours, retention time 22.95) | residual blood levels [5] | relative amount, Cyno. monkey [1, 9] | relative amount, Cyno. monkey [1, 8] | relative amount, Beagle dog [2, 9] | relative amount, Human [3, 9] | relative amount, Human [3, 8] | relative amount, SD Rat [4, 9]
CCN(CC)CCOc1ccc(/C(=C(/Cl)c2ccccc2)c2ccc(O)cc2)cc1 [C26H28NO2Cl, 4-hydroxy-trans-clomiphene] | 239.4 | 43.4 | 218.8 | 103.4 | 1535.2 | 240.3 | 247.0 | 100.9 | 31.1 | 992.7 | – | – | – | – | – | – | – | – | –
CCN(CC)CCOc1ccc(C(c2ccc(O)c(O)c2)C(Cl)c2ccccc2)cc1 (centres unmarked) [C26H30NO3Cl] | – | – | – | – | – | – | – | – | – | – | 65.9 | 43.7 | – | – | – | – | – | – | –
CCN(CC)CCOc1ccc(/C(=C(/Cl)c2ccccc2)c2ccccc2)cc1 (single isomer, unassigned) [cis isomer, cis-clomiphene] | – | – | – | – | – | – | – | – | – | – | – | – | in excess of one month | – | – | – | – | – | –
CCN(CC)CCOc1ccc(/C(=C(\Cl)c2ccccc2)c2ccccc2)cc1 [C26H28ClNO, trans-clomiphene] | 279.1 | 84.2 | 148.9 | 103.2 | 6227.3 | 625.8 | 285.4 | 240.0 | 182.5 | 3166.8 | – | – | – | 2828.5 | 3166.4 | 4989.3 | 4012.5 | 4297.8 | 3123.3
CCNCCOc1ccc(/C(=C(/Cl)c2ccccc2)c2ccccc2)cc1 [C24H24NOCl, N-desethyl-trans-clomiphene] | 22.3 | – | 25.9 | 18.6 | – | 48.3 | 43.4 | – | – | 336.6 | – | – | – | 2175.0 | 1029.8 | 723.5 | 1262.4 | 699.8 | 673.8
